This assay relates to NCI-H1703 cells. Description: GLS Cell Proliferation Assay (NCI-H1703). The class given is cell-based, human. Conditions: Homo sapiens, 120 h; NCI-H1703 cells, 5 days incubation; geometric mean where repeated; read-out: Assay c) GLS Cell Proliferation Assay. The source says:
The following assays were used to measure the effects of the compounds of the present invention: a) GLS Enzyme Potency Assay; b) GLS Cell Potency Assay; c) GLS Cell Proliferation Assay; and d) Mouse Xenograft Model. During the description of the assays, generally: • i. The following abbreviations have been used: CO2=Carbon dioxide; DMEM=Dulbecco's Modified Eagle Medium; DMSO=Dimethyl sulphoxide; EDTA=Ethylenediaminetetraacetic acid; EGTA=Ethylene glycol tetraacetic acid; FCS=Foetal calf serum; h=Hour(s); NBS=Non-binding surface; SDS=Sodium dodecyl sulphate; r.t.=room temperature; TRIS=Tris(Hydroxymethyl)aminomethane. • ii. […]
The ability of compounds to inhibit cell growth was measured using a 384 well plate NCI-H1703 cell proliferation assay. NCI-H1703 cells were grown in phenol red free RPMI1640, 10% FCS and 2 mM glutamine and seeded at a density of 750 cells per well in 40 μl of growth medium into clear-bottom 384 well assay plates (Corning product code 3712) and incubated for 24 h at 37° C., 5% CO2. […] DMSO concentration was maintained at 0.3% by back filling with DMSO solution. Plates were incubated for 5 days at 37° C., 5% CO2, Sytox Green and Saponin added to final concentration of 2 μM and 0.25% respectively and incubated for 6 h prior to analysis. Plates were read on an Acumen eX3 (TTP Labtech) using 488 nm excitation and FITC filter set (500-530 nm) for emission. IC50 values were calculated by curve fitting to max inhibition of day zero growth using GeneData software analysis.
As for `CO[C@H](C(=O)Nc1nnc(N[C@@H]2CCN(c3cncnn3)C2)s1)c1cccc(OC(F)F)c1` [23(a), (2S)-2-[3-(difluoromethoxy)phenyl]-2-methoxy-N-[5-[[(3R)-1-(1,2,4-triazin-6-yl)pyrrolidin-3-yl]amino]-1,3,4-thiadiazol-2-yl]acetamide], the IC50 was 0.00463 µM.

As for `CCO[C@H](C(=O)Nc1nnc(N[C@@H]2CCN(c3cccnn3)C2)s1)c1ccc(OC)cc1` [28(a), (2S)-2-ethoxy-2-(4-methoxyphenyl)-N-[5-[[(3R)-1-pyridazin-3-ylpyrrolidin-3-yl]amino]-1,3,4-thiadiazol-2-yl]acetamide], the IC50 worked out at 0.00928 µM.

Regarding `CCO[C@H](C(=O)Nc1nnc(N[C@@H]2CCN(c3cccnn3)C2)s1)c1cccc(OC)c1` [30(a), (2S)-2-ethoxy-2-(3-methoxyphenyl)-N-[5-[[(3R)-1-pyridazin-3-ylpyrrolidin-3-yl]amino]-1,3,4-thiadiazol-2-yl]acetamide], the IC50 is 0.0716 µM.

`CCO[C@@H](C(=O)Nc1nnc(N[C@@H]2CCN(c3cccnn3)C2)s1)c1cccc(OC(F)(F)F)c1` [Example 16(b), (2R)-2-Ethoxy-N-[5-[[(3R)-1-pyridazin-3-ylpyrrolidin-3-yl]amino]-1,3,4-thiadiazol-2-yl]-2-[3-(trifluoromethoxy)phenyl]acetamide]: the IC50 amounted to 0.00638 µM.

In the case of `CO[C@@H](C(=O)Nc1nnc(N[C@@H]2CCN(c3cncnn3)C2)s1)c1cccc(OC(F)F)c1` [23(b), (2R)-2-[3-(difluoromethoxy)phenyl]-2-methoxy-N-[5-[[(3R)-1-(1,2,4-triazin-6-yl)pyrrolidin-3-yl]amino]-1,3,4-thiadiazol-2-yl]acetamide], the IC50 turned out to be 0.0354 µM.

Take `CO[C@H](C(=O)Nc1nnc(N[C@@H]2CCN(c3nccnn3)C2)s1)c1cccc(OC(F)(F)F)c1` [Example 8(a), (2S)-2-Methoxy-N-[5-[[(3R)-1-(1,2,4-triazin-3-yl)pyrrolidin-3-yl]amino]-1,3,4-thiadiazol-2-yl]-2-[3-(trifluoromethoxy)phenyl]acetamide]: the IC50 stood at 0.00504 µM.

Consider `CCO[C@@H](C(=O)Nc1nnc(N[C@@H]2CCN(c3cccnn3)C2)s1)c1ccc(OC)cc1` [28(b), (2R)-2-ethoxy-2-(4-methoxyphenyl)-N-[5-[[(3R)-1-pyridazin-3-ylpyrrolidin-3-yl]amino]-1,3,4-thiadiazol-2-yl]acetamide], for which the IC50 stood at 0.151 µM.

On to `[2H]C([2H])([2H])O[C@@]([2H])(C(=O)Nc1nnc(N[C@@H]2CCN(c3cccnn3)C2)s1)c1ccccc1` [20(b), (2R)-2-deuterio-2-phenyl-N-[5-[[(3R)-1-pyridazin-3-ylpyrrolidin-3-yl]amino]-1,3,4-thiadiazol-2-yl]-2-(trideuteriomethoxy)acetamide], for which the IC50 was found to be 0.166 µM.

With `[2H]C([2H])([2H])O[C@@H](C(=O)Nc1nnc(N[C@@H]2CCN(c3cccnn3)C2)s1)c1ccccc1` [18(b), (2R)-2-phenyl-N-[5-[[(3R)-1-pyridazin-3-ylpyrrolidin-3-yl]amino]-1,3,4-thiadiazol-2-yl]-2-(trideuteriomethoxy)acetamide], the IC50 was 0.073 µM.

As for `CCO[C@H](C(=O)Nc1nnc(N[C@@H]2CCN(c3cccnn3)C2)s1)c1cccc(OC(F)F)c1` [Example 15(a), (2S)-2-[3-(Difluoromethoxy)phenyl]-2-ethoxy-N-[5-[[(3R)-1-pyridazin-3-ylpyrrolidin-3-yl]amino]-1,3,4-thiadiazol-2-yl]acetamide], the IC50 is 0.000921 µM.

As for `CO[C@@H](C(=O)Nc1nnc(N[C@@H]2CCN(c3cccnn3)C2)s1)c1cccc(OC(F)F)c1` [Example 7(b), (2R)-2-[3-(Difluoromethoxy)phenyl]-2-methoxy-N-[5-[[(3R)-1-pyridazin-3-ylpyrrolidin-3-yl]amino]-1,3,4-thiadiazol-2-yl]acetamide], the IC50 amounted to 0.00694 µM.

`CO[C@H](C(=O)Nc1nnc(N[C@@H]2CCN(c3nccnn3)C2)s1)c1ccc(F)cc1` [17(a), (2S)-2-(4-fluorophenyl)-2-methoxy-N-[5-[[(3R)-1-(1,2,4-triazin-3-yl)pyrrolidin-3-yl]amino]-1,3,4-thiadiazol-2-yl]acetamide]: the IC50 was 3.57 µM.

For the molecule `COc1ccc([C@@H](OC)C(=O)Nc2nnc(N[C@@H]3CCN(c4nccnn4)C3)s2)cc1OC` [26(b), (2R)-2-(3,4-dimethoxyphenyl)-2-methoxy-N-[5-[[(3R)-1-(1,2,4-triazin-3-yl)pyrrolidin-3-yl]amino]-1,3,4-thiadiazol-2-yl]acetamide], the IC50 amounted to 0.101 µM.

Take `CO[C@@H](C(=O)Nc1nnc(N[C@@H]2CCN(c3nccnn3)C2)s1)c1ccccc1` [Example 1(b), (2R)-2-Methoxy-2-phenyl-N-[5-[[(3R)-1-(1,2,4-triazin-3-yl)pyrrolidin-3-yl]amino]-1,3,4-thiadiazol-2-yl]acetamide]: the IC50 worked out at 2.24 µM.

As for `CCO[C@@H](C(=O)Nc1nnc(N[C@@H]2CCN(c3cccnn3)C2)s1)c1cccc(OC)c1` [30(b), (2R)-2-ethoxy-2-(3-methoxyphenyl)-N-[5-[[(3R)-1-pyridazin-3-ylpyrrolidin-3-yl]amino]-1,3,4-thiadiazol-2-yl]acetamide], the IC50 amounted to 0.00201 µM.

As for `COc1ccc([C@H](OC)C(=O)Nc2nnc(N[C@@H]3CCN(c4nccnn4)C3)s2)cc1OC` [26(a), (2S)-2-(3,4-dimethoxyphenyl)-2-methoxy-N-[5-[[(3R)-1-(1,2,4-triazin-3-yl)pyrrolidin-3-yl]amino]-1,3,4-thiadiazol-2-yl]acetamide], the IC50 worked out at 2.05 µM.

For the molecule `CO[C@@H](C(=O)Nc1nnc(N[C@@H]2CCN(c3cccnn3)C2)s1)c1ccc(F)cc1` [Example 12(b), (2R)-2-(4-Fluorophenyl)-2-methoxy-N-[5-[[(3R)-1-pyridazin-3-ylpyrrolidin-3-yl]amino]-1,3,4-thiadiazol-2-yl]acetamide], the IC50 was determined as 0.429 µM.

With `CO[C@H](C(=O)Nc1nnc(N[C@@H]2CCN(c3cccnn3)C2)s1)c1ccc(F)cc1` [Example 12(a), (2S)-2-(4-Fluorophenyl)-2-methoxy-N-[5-[[(3R)-1-pyridazin-3-ylpyrrolidin-3-yl]amino]-1,3,4-thiadiazol-2-yl]acetamide], the IC50 came to 0.0135 µM.

On to `CO[C@H](C(=O)Nc1nnc(N[C@@H]2CCN(c3cccnn3)C2)s1)c1cccc(OC(F)F)c1` [Example 7(a), (2S)-2-[3-(Difluoromethoxy)phenyl]-2-methoxy-N-[5-[[(3R)-1-pyridazin-3-ylpyrrolidin-3-yl]amino]-1,3,4-thiadiazol-2-yl]acetamide], for which the IC50 came out at 0.00224 µM.

On to `CCO[C@@H](C(=O)Nc1nnc(N[C@@H]2CCN(c3cccnn3)C2)s1)c1cccc(OC(F)F)c1` [Example 15(b), (2R)-2-[3-(Difluoromethoxy)phenyl]-2-ethoxy-N-[5-[[(3R)-1-pyridazin-3-ylpyrrolidin-3-yl]amino]-1,3,4-thiadiazol-2-yl]acetamide], for which the IC50 amounted to 0.00247 µM.

On to `CO[C@@H](C(=O)Nc1nnc(N[C@@H]2CCN(c3cccnn3)C2)s1)c1ccccc1` [Example 2(b), (2R)-2-Methoxy-2-phenyl-N-[5-[[(3R)-1-pyridazin-3-ylpyrrolidin-3-yl]amino]-1,3,4-thiadiazol-2-yl]acetamide], for which the IC50 was 0.179 µM.

`[2H]C([2H])([2H])O[C@]([2H])(C(=O)Nc1nnc(N[C@@H]2CCN(c3cccnn3)C2)s1)c1ccccc1` [20(a), (2S)-2-deuterio-2-phenyl-N-[5-[[(3R)-1-pyridazin-3-ylpyrrolidin-3-yl]amino]-1,3,4-thiadiazol-2-yl]-2-(trideuteriomethoxy)acetamide]: the IC50 amounted to 0.00194 µM.

Values taken from patent US10040788B2, “1,3,4-thiadiazole compounds and their use in treating cancer” (AstraZeneca AB, priority 2014, dated 2018).
